{"source": "patent US9096581B2", "about": "“Fluoroethyl thiamine or salts thereof and application thereof in preparation of anticoccidial drugs” (GUANGZHOU ORIGMOL FEED-ADDITIVE CO., LTD, priority 2012, dated 2015)", "tested_on": "Eimeria tenella GD strains", "assay": "Anticoccidial dose research in chickens infected with Eimeria tenella GD (Embodiment 2)", "assay_type": "in vivo", "design": "oocyst value: scale not given here", "conditions": "for number of oocysts in cecum / average weight gain: 7th day; for lesion value: cecum, 7 days after infecting, scale 0-40; for survival rate / average weight gain / bloody feces scoring: chickens; for bloody feces scoring: 5 days after infecting, score 0-4; for oocyst value: converted per Table 2; for relative weight gain rate: vs non-infected non-drug control", "description": "1-day-old Lingnan yellow chickens, purchased from Poultry Research Unit, Bureau of Animal Husbandry, Guangdong Academy of Agricultural Sciences, bred under coccidium-free environment, and subjected to experiment after no coccidium oocyst is found in feces through microscopic examination when the chickens are 14 days old. Perfect compound feed for chickens: prepared by Huizhou Yuantai Feed Co. Ltd., and containing no antibacterial or anticoccidial additive.\nEimeria tenella GD strains, having no resistance to various anticoccidial drugs. Breeding and amplifying in chickens before the experiment, collecting fresh oocysts, sporulating, and preserving at 4° C. for later use.\nWeighing the 14-day-old experiment chickens one by one, rejecting emaciated or overweighted chickens, selecting healthy chickens of which the individual body weight difference is within 20 g, and dividing to 9 groups with 20 chickens in each group. Groups 1 and 2 are respectively a non-drug-applied and non-coccidium-killed control group and a coccidium-infected and non-drug-applied control group, and Groups 3-9 are experiment groups applied with different doses of the fluoroethyl thiamine hydrochloride according to Table 1. Adding different doses of drugs to feeds and mixing uniformly on the day of experiment grouping, enabling the chickens to freely take in the feeds, and feeding the chickens until the experiment ends.\nExcept the non-coccidium-infected and non-drug-applied control group (Group 1), giving each experiment chicken in each experiment group with 2.5×10^5 eimeria tenella sporulated oocysts via the crop on the next day of the grouping day. During experiment, observing and recording the spirit, appetite, bloody feces situation, death count and the like of the chickens every day. Performing bloody feces scoring on the chickens in each group 5 days after infecting. On the 7th day, respectively weighing all the chickens in each group, then autopsying them, observing cecum lesions and counting the oocysts in the cecum.\n2.3.1 Bloody feces scoring: according to the method in the references: 0 point, no bloody feces, 1 point, less than 25% of bloody feces; 2 points, 25%-50% of bloody feces; 3 points, 50%-75% of bloody feces; 4 points, more than 75% of bloody feces.\n2.3.2 Weight gain: respectively weighing each chicken when the experiment starts and ends, and calculating the average weight gain and relative weight gain rate. The relative weight gain rate=(the average weight gain in the experiment groups/the average weight gain in the non-infected and non-drug-applied control group)×100%.\n2.3.3 Survival rate: recording the number of dead chickens of each group, autopsying to determine the death cause, and calculating the survival rate. The survival rate=(the total number of the chickens in the experiment groups−the number of the chickens dying of coccidium infection during the experiment)/the total number of the chickens in the experiment groups×100%.\n2.3.4 Lesion standard: killing the chickens 7 days after infecting, performing cecum lesion scoring according to the lesion scoring of Johnson and Reid (1970), and converting lesion points to lesion values.\nlesion scoring (taking the serious side if the two sides of the cecum are inconsistent in lesion): 0 point, no macroscopic lesion; 1 point, a small amount of scattered petechiae on the cecum wall, no incrassation on the cecum wall, normal contents; 2 points, a large amount of lesion, obviously bloody contents in the cecum, slight incrassation on the cecum wall, normal contents; 3 points, a large a mount of blood or intestinal core (blood clot or gray caseous banana-shaped lumps) in the cecum, obvious incrassation on the cecum wall, a small amount of feces in the cecum; 4 points, cecum swelling caused by filling of a large amount of blood or intestinal core with or without feces in the intestinal core. Recording the dead chicken lesion as 4 points as well. […]", "note": "Where a name gives a salt, the structure may show the parent alone.", "data": [{"compound": "CCc1ncc(C[n+]2csc(CCF)c2C)c(N)n1", "note": "[fluoroethyl thiamine hydrochloride, 3-[(4-amino-2-ethyl-5-pyrimidyl)-methylene]-5-(2-fluoroethyl)-4-methyl thiazole chloride hydrochloride]", "values": [{"measurement": "anticoccidial index (ACI)", "setting": "10 ppm in feed", "result": 136.7}, {"measurement": "number of oocysts in cecum", "setting": "10 ppm in feed", "result": "2.965 ×10^6/chicken"}, {"measurement": "lesion value", "setting": "10 ppm in feed", "result": 24.5}, {"measurement": "survival rate", "setting": "10 ppm in feed", "result": 90, "unit": "%"}, {"measurement": "average weight gain", "setting": "10 ppm in feed", "result": 135.7, "unit": "g/chicken"}, {"measurement": "bloody feces scoring", "setting": "10 ppm in feed", "result": 2}, {"measurement": "oocyst value", "setting": "10 ppm in feed", "result": 10}, {"measurement": "relative weight gain rate", "setting": "10 ppm in feed", "result": 81.2, "unit": "%"}, {"measurement": "anticoccidial index (ACI)", "setting": "25 ppm in feed", "result": 144.6}, {"measurement": "number of oocysts in cecum", "setting": "25 ppm in feed", "result": "2.325 ×10^6/chicken"}, {"measurement": "lesion value", "setting": "25 ppm in feed", "result": 18.8}, {"measurement": "survival rate", "setting": "25 ppm in feed", "result": 90, "unit": "%"}, {"measurement": "average weight gain", "setting": "25 ppm in feed", "result": 139.5, "unit": "g/chicken"}, {"measurement": "bloody feces scoring", "setting": "25 ppm in feed", "result": 2}, {"measurement": "oocyst value", "setting": "25 ppm in feed", "result": 10}, {"measurement": "relative weight gain rate", "setting": "25 ppm in feed", "result": 83.4, "unit": "%"}, {"measurement": "anticoccidial index (ACI)", "setting": "50 ppm in feed", "result": 165.5}, {"measurement": "drug efficiency level judged from the anticoccidial index", "setting": "50 ppm in feed", "result": "intermediate-efficiency anticoccidial drugs (intermediate-efficiency anticoccidial drugs if 160≦ACI<180)"}, {"measurement": "number of oocysts in cecum", "setting": "50 ppm in feed", "result": "3.65 ×10^6/chicken"}, {"measurement": "lesion value", "setting": "50 ppm in feed", "result": 11.2}, {"measurement": "survival rate", "setting": "50 ppm in feed", "result": 100, "unit": "%"}, {"measurement": "average weight gain", "setting": "50 ppm in feed", "result": 144.9, "unit": "g/chicken"}, {"measurement": "bloody feces scoring", "setting": "50 ppm in feed", "result": 1}, {"measurement": "oocyst value", "setting": "50 ppm in feed", "result": 10}, {"measurement": "relative weight gain rate", "setting": "50 ppm in feed", "result": 86.7, "unit": "%"}, {"measurement": "anticoccidial index (ACI)", "setting": "75 ppm in feed", "result": 176.4}, {"measurement": "drug efficiency level judged from the anticoccidial index", "setting": "75 ppm in feed", "result": "intermediate-efficiency anticoccidial drugs (intermediate-efficiency anticoccidial drugs if 160≦ACI<180)"}, {"measurement": "number of oocysts in cecum", "setting": "75 ppm in feed", "result": "2.15 ×10^6/chicken"}, {"measurement": "lesion value", "setting": "75 ppm in feed", "result": 8.5}, {"measurement": "survival rate", "setting": "75 ppm in feed", "result": 100, "unit": "%"}, {"measurement": "average weight gain", "setting": "75 ppm in feed", "result": 158.7, "unit": "g/chicken"}, {"measurement": "bloody feces scoring", "setting": "75 ppm in feed", "result": 0}, {"measurement": "oocyst value", "setting": "75 ppm in feed", "result": 10}, {"measurement": "relative weight gain rate", "setting": "75 ppm in feed", "result": 94.9, "unit": "%"}, {"measurement": "anticoccidial index (ACI)", "setting": "100 ppm in feed", "result": 195.9}, {"measurement": "drug efficiency level judged from the anticoccidial index", "setting": "100 ppm in feed", "result": "high-efficiency anticoccidial drugs (high-efficiency anticoccidial drugs if ACI≧180)"}, {"measurement": "number of oocysts in cecum", "setting": "100 ppm in feed", "result": "0.47 ×10^6/chicken"}, {"measurement": "lesion value", "setting": "100 ppm in feed", "result": 0}, {"measurement": "survival rate", "setting": "100 ppm in feed", "result": 100, "unit": "%"}, {"measurement": "average weight gain", "setting": "100 ppm in feed", "result": 162.0, "unit": "g/chicken"}, {"measurement": "bloody feces scoring", "setting": "100 ppm in feed", "result": 0}, {"measurement": "oocyst value", "setting": "100 ppm in feed", "result": 1}, {"measurement": "relative weight gain rate", "setting": "100 ppm in feed", "result": 96.9, "unit": "%"}, {"measurement": "anticoccidial index (ACI)", "setting": "150 ppm in feed", "result": 201.4}, {"measurement": "drug efficiency level judged from the anticoccidial index", "setting": "150 ppm in feed", "result": "high-efficiency anticoccidial drugs (high-efficiency anticoccidial drugs if ACI≧180)"}, {"measurement": "number of oocysts in cecum", "setting": "150 ppm in feed", "result": "0.16 ×10^6/chicken"}, {"measurement": "lesion value", "setting": "150 ppm in feed", "result": 0}, {"measurement": "survival rate", "setting": "150 ppm in feed", "result": 100, "unit": "%"}, {"measurement": "average weight gain", "setting": "150 ppm in feed", "result": 171.2, "unit": "g/chicken"}, {"measurement": "bloody feces scoring", "setting": "150 ppm in feed", "result": 0}, {"measurement": "oocyst value", "setting": "150 ppm in feed", "result": 1}, {"measurement": "relative weight gain rate", "setting": "150 ppm in feed", "result": 102.4, "unit": "%"}, {"measurement": "anticoccidial index (ACI)", "setting": "200 ppm in feed", "result": 200.8}, {"measurement": "drug efficiency level judged from the anticoccidial index", "setting": "200 ppm in feed", "result": "high-efficiency anticoccidial drugs (high-efficiency anticoccidial drugs if ACI≧180)"}, {"measurement": "number of oocysts in cecum", "setting": "200 ppm in feed", "result": "0 ×10^6/chicken"}, {"measurement": "lesion value", "setting": "200 ppm in feed", "result": 0}, {"measurement": "survival rate", "setting": "200 ppm in feed", "result": 100, "unit": "%"}, {"measurement": "average weight gain", "setting": "200 ppm in feed", "result": 168.5, "unit": "g/chicken"}, {"measurement": "bloody feces scoring", "setting": "200 ppm in feed", "result": 0}, {"measurement": "oocyst value", "setting": "200 ppm in feed", "result": 0}, {"measurement": "relative weight gain rate", "setting": "200 ppm in feed", "result": 100.8, "unit": "%"}]}]}
